Patent US20060009425A1, “Oral formulations of paricalcitol” (priority 2004, published 2006)

Experiments:
[1] = tested on: biochemical bone activity markers; experiment: Phase 3 TIW study, biochemical bone activity markers (Table C); assay type: in vivo, human; conditions: CKD Stage 3 and 4, TIW treated subjects (Table C)
Excerpt: Serum bone-specific alkaline phosphate and serum osteocalcin are considered more sensitive bone markers to evaluate degree of bone remodeling than urinary bone marker. […] These subjects received treatment with the oral formulations of the present invention or a placebo. The bone markers examined in these subjects were serum osteocalcin, serum bone-specific alkaline phosphatase, urinary pyridinoline, and deoxypyridinoline. If more than 1 biochemical bone activity marker measurement existed for a subject on a particular day, the higher measurement was considered to be that subject's biochemical bone activity marker measurement for that day. […] The Final Visit measurement was defined as the last biochemical bone activity marker measurement following the first dose of study drug.
The Week 11 Visit measurement was defined as the biochemical bone activity marker measurement on the day closest to the Week 11 scheduled visit, for which the possible measurements to choose from were those collected within 64 and 77 days following the first dose of study drug.
Changes from baseline to Week 11 Visit and to Final Visit in biochemical bone activity markers were compared between oral paricalcitol and placebo using an ANOVA with treatment as the factor on the combined Phase 3 all treated subject population (Table F). Also, the changes from baseline to Week 11 Visit and to Final Visit were compared between oral paricalcitol and placebo using an ANCOVA with baseline as the second factor on the combined Phase 3 all treated subject population (Table G).
The study was performed in 4 parts: a Screening Visit, a Pre-Treatment Phase, a Treatment Phase, and a Follow-Up Phase. At the Screening Visit, subjects reviewed and signed the informed consent form prior to the conduct of any study-specific screening procedures. A spot urine sample was used to calculate calcium/creatinine ratio. A blood sample was drawn for iPTH, blood urea nitrogen (BUN), albumin and serum creatinine levels. […] The serum creatinine, BUN, and albumin values were used to calculate the subject's estimated glomerular filtration rate (eGFR) using a formula derived from the “Modification of Diet in Renal Disease” (MDRD) study. Subjects with a calculated eGFR of 15 to 60 mL/min were eligible to undergo Pre-Treatment Phase procedures. The Pre-Treatment Phase was 1 to 4 weeks. During this phase, subjects had 2 scheduled office visits. The office visits could have occurred at any time over a 4-week period but must have been at least 1 day apart. During these visits, subjects were to meet laboratory criteria regarding serum iPTH, calcium, and phosphorus levels. If the subject was unable to meet these criteria, he or she may have been re-screened once after 4 weeks. […] Subjects who satisfied inclusion and exclusion criteria after a minimum of 1 week in the Pre-Treatment Phase were eligible to enter the Treatment Phase. During the Treatment Phase, subjects were to self-administer study drug 3 times weekly, on Monday, Wednesday and Friday, for a total of 24 weeks. The initial dose was 2 or 4 mcg (depending on baseline iPTH levels). Procedures to be performed during the Treatment Phase included vital signs, chemistry and hematology, urinary pyridinoline, urinary deoxypyridinoline, serum bone-specific alkaline phosphatase, serum osteocalcin, urinalysis, spot urine for calcium/creatinine ratio, and recording of adverse events and concurrent medications. Serum iPTH, calcium, phosphorus, and albumin were measured every 2 weeks. Dose adjustments were to be made according to these chemistry results for iPTH, calcium, and phosphorus. Doses may have been increased in 2 mcg increments every 4 weeks. Dose reductions were to occur according to a protocol-specified algorithm. However, dosing could have been adjusted any time if, in the judgment of the Investigator, a risk to subject safety existed.

[2] = Combined Phase 3 studies, safety (Examples 10-12); assay type: in vivo, human
Description: As discussed previously, Vitamin D deficiency is common in early stage CKD and is a major factor in the development of 2° HPT. However, few nephrologists prescribe calcitriol due to concerns of its calcemic, phosphatemic and calciuric effects and potential adverse effect on kidney function. In this example, a study was conducted that evaluated the safety of paricalcitol capsule in CKD stage 3-4 subjects with 2° HPT in 3 double-blind, placebo-controlled multicenter studies. A total of 220 subjects with iPTH ≧150 pg/mL, serum Ca 8-10 mg/dL and P≦5.2 mg/dL were randomized 1:1 and treated with paricalcitol capsule (N=107) or placebo (N=113) three times per week or daily for 24 weeks. Initial doses were based on iPTH levels at baseline (iPTH <500 pg/mL: 2 mcg TIW or 1 mcg QD; iPTH ≧500 pg/mL: 4 mcg TIW or 2 mcg QD). Subsequent dose adjustments (TIW: 2 mcg, QD: 1 mcg) were based on biweekly Ca, P and iPTH results, dose increases occurred every 4 weeks.
In this example, three double-blind, placebo-controlled, multicenter studies were conducted to evaluate the safety and efficacy of paricalcitol capsule in CKD stage 3-4 subjects. Major inclusion included eGFR (MDRD formula) 15-60 mL/min/1.73 m^2, iPTH ≧150 pg/mL. A total of 220 subjects across the 3 studies were randomized and received paricalcitol capsule or placebo three times weekly (TIW, N=145) or daily (QD, N=75) for 24 weeks. Mean baseline eGFR was 23.90 mL/min/1.73 m^2 in the paricalcitol group and 23.44 mL/min/1.73 m^2 in the placebo group. The initial dose was 2 mcg (TIW) or 1 mcg (QD) for baseline iPTH ≦500 pg/mL and 4 mcg (TIW) or 2 mcg (QD) for baseline iPTH >500 pg/mL. Doses were titrated based on serum Ca, P and iPTH results that were measured every 2 weeks, dose increases occurred every 4 weeks.
In this example, paricalcitol capsules were evaluated in 3 double-blind, placebo-controlled multicenter studies in CKD stage 3-4 subjects with 2° HPT; 2 of these studies were conducted with TIW dosing and 1 was done with QD dosing. Subjects with eGFR (MDRD formula) 15-60 ml/min/1.73 m^2, iPTH ≧150 pg/mL, serum Ca 8.0-10.0 mg/dL and PO4≦5.2 mg/dL were randomized 1:1 and treated with paricalcitol capsule or placebo for 24 weeks. A total of 145 subjects used TIW regimen (paricalcitol: 72; placebo: 73) and 75 subjects (paricalcitol: 35; placebo: 40) used QD regimen. After the initial doses, doses were titrated based on serum Ca, P and iPTH results that were measured every 2 weeks; dose increases occurred once every 4 weeks and decreases every 2 weeks. Dosing administrations are shown below in Table 18.

[3] = 3 Phase 3 studies, TIW or daily for 24 weeks, CKD stage 3-4
[4] = N = 106, 3 Phase 3 studies combined
[5] = subjects who completed 24 weeks of treatment

**Q.** Which “Serum Bone-Specific Alkaline Phosphatase, Change from Baseline (SE) to Final” value [1] does the source give for `C[C@H](/C=C/[C@H](C)C(C)(C)O)[C@H]1CC[C@H]2/C(=C/C=C3C[C@@H](O)C[C@H](O)C3)CCC[C@]12C` [Paricalcitol, 19-nor-1α,3β,25-trihydroxy-9,10-secoergosta-5(Z); 7(E),22(E)-triene] here?
**A.** The value was −7.922 (1.3520) mcg/L.

**Q.** And the “Serum Bone-Specific Alkaline Phosphatase, Change from Baseline (SE) to Week 11” value [1]?
**A.** The value was −4.673 (1.2590) mcg/L.

**Q.** What about the “Serum Osteocalcin, Change from Baseline (SE) to Final” value [1] of the same compound?
**A.** Its value is −19.00 (4.381) ng/mL.

**Q.** And the “Serum Osteocalcin, Change from Baseline (SE) to Week 11” value [1]?
**A.** The value was −4.23 (4.386) ng/mL.

**Q.** And the “Urinary Deoxypyridinoline, Change from Baseline (SE) to Final” value [1]?
**A.** Its value is −0.0084 (0.00375) nmol/mg Creat.

**Q.** What about the “Urinary Deoxypyridinoline, Change from Baseline (SE) to Week 11” value [1] of the same compound?
**A.** The value was −0.0116 (0.00354) nmol/mg Creat.

**Q.** And the “Urinary Pyridinoline, Change from Baseline (SE) to Final” value [1]?
**A.** Its value is −4.06 (2.276) nmol/mmol Creat.

**Q.** And the “Urinary Pyridinoline, Change from Baseline (SE) to Week 11” value [1]?
**A.** Its value is −5.46 (2.545) nmol/mmol Creat.

**Q.** And the “subjects who experienced hypercalcemia (2 consecutive Ca >10.5 mg/dL)” value ([2]; 2/106, 3 Phase 3 studies combined)?
**A.** The value was 2%.

**Q.** And the “adverse event incidence: pharyngitis” value ([2]; 3 Phase 3 studies combined)?
**A.** The value was 10%.

**Q.** And the “treatment-emergent adverse events reporting” value ([2]; 3 Phase 3 studies combined)?
**A.** Its value is 82%.

**Q.** What about the “Urine Calcium, Mean Change from Baseline (SE)” value [2, 3] of the same compound?
**A.** The value was 2.4 (3.04) mg/24 hours.

**Q.** And the “Urine Calcium, Mean Final Value” [2, 3]?
**A.** Its value is 42.0 mg/24 hours.

**Q.** What about the “Urine Phosphorous, Mean Change from Baseline (SE)” value [2, 3] of the same compound?
**A.** The value was −2.1 (39.72) mg/24 hours.

**Q.** And the “Urine Phosphorous, Mean Final Value” [2, 3]?
**A.** Its value is 670.4 mg/24 hours.

**Q.** What about the safety and tolerability ([2]; CKD stage 3-4 subjects, 3 Phase 3 studies) of the same compound?
**A.** Its safety and tolerability is “safe and well tolerated”.

**Q.** And the “Elevated Ca × P (2 consecutive Ca × P > 55 mg^2/dL^2), subjects n (%)” value (“Elevated Ca × P … (%)” below) [2, 4]?
**A.** Its value is 13 (12%).

**Q.** What about the “Hypercalcemia (2 consecutive Ca > 10.5 mg/dL), subjects n (%)” value (“Hypercalcemia … (%)” for short) [2, 4] of the same compound?
**A.** Its value is 2 (2%).

**Q.** What about the “Hyperphosphatemia (2 consecutive P > 5.5 mg/dL), subjects n (%)” value [2, 4] of the same compound?
**A.** The value was 11 (10%).

**Q.** And the “Elevated Ca × P … (%)” value ([2]; QD regimen)?
**A.** Its value is 5 (14%).

**Q.** And the “Hypercalcemia … (%)” value ([2]; QD regimen)?
**A.** Its value is 0 (%).

**Q.** What about the “Hyperphosphatemia (2 consecutive P > 5.5 mg/dL), subjects n (%)” value ([2]; QD regimen) of the same compound?
**A.** The value was 5 (14%).

**Q.** What about the “Elevated Ca × P … (%)” value ([2]; TIW regimen) of the same compound?
**A.** Its value is 8 (12%).

**Q.** And the “Hypercalcemia … (%)” value ([2]; TIW regimen)?
**A.** Its value is 2 (3%).

**Q.** What about the “Hyperphosphatemia (2 consecutive P > 5.5 mg/dL), subjects n (%)” value ([2]; TIW regimen) of the same compound?
**A.** The value was 6 (9%).

**Q.** What about the “eGFR (MDRD formula), Mean Change from Baseline” value [2, 5] of the same compound?
**A.** Its value is −2.5 (0.526) mL/min/1.73 m^2.

**Q.** What about the “eGFR (MDRD formula), Mean Final Value” [2, 5] of the same compound?
**A.** The value was 21.4 mL/min/1.73 m^2.

**Q.** What about the “eGFR (MDRD formula), Mean Percent Change from Baseline (SE)” value [2, 5] of the same compound?
**A.** The value was −10.4 (2.268).
